How the values were obtained:
Assay type in all cases: functional, organism-based
Plasmodium berghei = test: In vitro inhibitory activity against Plasmodium berghei
Plasmodium falciparum [1] = test: In vitro inhibitory activity against Plasmodium falciparum FcB1
Plasmodium falciparum [2] = test: In vitro inhibitory activity against Plasmodium falciparum FCB2

## CCN(CC)CCCC(C)Nc1ccnc2cc(Cl)ccc12 (centres undefined) [CHLOROQUINE PHOSPHATE]
Plasmodium berghei; Plasmodium berghei
  IC50: 72 nM

## Ruthenium-Chloroquine Complex[RuCl2(CQ)]2
Plasmodium falciparum [1]
  IC50: 10.5 nM
Plasmodium berghei
  IC50: 18 nM
Plasmodium falciparum [2]
  IC50: 46.5 nM

From ChEMBL document CHEMBL1129510, “Toward a novel metal-based chemotherapy against tropical diseases. 2. Synthesis and antimalarial activity in vitro and in vivo of new ruthenium- and rhodium-chloroquine complexes” (J Med Chem, 1996)
